Laboratory results from patent publication US7767682B2, “Medicaments” (GlaxoSmithKline LLC, priority 2005, dated 2010).
Entries after “also recorded” stand apart in the source; their conditions may differ. Where a name gives a salt, the structure may show the parent alone. Bridge positions count the residues as written; N and C are the ends. Ends that are not written are not given here.

What was measured:
MDCK-C7 cells [1] = assay: Short-circuit current (SCC) ion transport response to ADH in MDCK-C7 monolayers in Ussing chambers; type: cell-based, canine; details: for initial rapid transient SCC response to ADH: 18 hrs pre-incubation before ADH
Method: The Madin-Darby canine kidney (MDCK) cell line expresses many characteristics of the renal collecting duct. The MDCK-C7 subclone forms a high-resistance, hormone-responsive model of the principal cells, which are found in distal sections of the renal tubule. The electrophysiological technique of short-circuit current measurement has been used to examine the response to antidiuretic hormone (ADH) in the MDCK-C7 clone.
The MDCK-C7cells were grown in a 37° C. humidified incubator with a 5% CO2 and […] gas mixture. Initially the cells were grown in 75 cm^2 flasks and fed with Minimal Media with Earle's salts, non-essential amino acids and L-glutamine (MEM; Gibco/BRL, Grand Island, N.Y., USA) supplemented with 10% fetal bovine serum (Sigma), 26 mM NaHCO3 and adjusted to pH 7.0. The confluent cells were subcultured by trypsinization and the cells were seeded (5.4×10^4 cell/cm^2) onto Nucleopore polycarbonate membranes forming the bottom of Transwell chambers (Costar, Cambridge, Mass., USA). The Transwell chambers were placed in specially designed tissue culture plates to form a two compartment system in which media are added to both apical and basolateral surfaces. The media were aspirated and replaced three times per week. The cells were used between passages 73 and 96.
Nucleopore filters (4.7 cm^2) containing confluent MDCK-C7 cells (10-16 days) were removed from the Transwell chambers and clamped between the halves of an Ussing chamber (World Precision Instruments, Sarasota, Fla.). Each half of the chamber contained a tapered fluid compartment with openings for voltage electrodes (close to the epithelial membrane) and current electrodes (at the opposite end of the chamber). The fluid chamber was water jacketed to maintain constant temperature (37° C.). The cells were bathed in serum-free MEM. The media were circulated in the chambers by means of a 5%CO2/O2 gas lift. […] Transepithelial resistance was calculated by applying a 2-mV pulse across the epithelium and measuring the resultant deflection in SCC. Data from cultures were used only if they maintained a resistance >1000 W cm^2. Transepithelial resistance (an indication of cellular viability) was monitored throughout the entire duration of each electrophysiological experiment by pulsing the tissues with a 2000 μV pulse every 200 seconds. Resistance values were calculated from the resulting current deflections using Ohm's law.
The cultures were placed in the Ussing chambers and incubated under short-circuited conditions until a steady baseline transport was achieved (0.5-1 h). In the experiments to characterize the ADH-induced ion transport phenomena, the cultures were pre-incubated with the inhibitors 30 minutes prior to the addition of ADH. In the experiments with GI262570X, compound was added 18 hrs. prior to the addition of ADH. ADH was added to the serosal bathing media; amiloride was added to the apical media 30 min after ADH to determine the portion of the transport due to flux through the amiloride-sensitive Na^+ channel. The concentrations of effectors used were: ADH, 0.1 IU/ml; amiloride, 30 μM; NPPB, 500 μM; verapamil, 25 μM, and GI262570X (concentration range from 1 nM -1 μM). Each experiment was performed using matched cultures grown in parallel. The data are presented as means±SE with n indicating the number of different experiments.

MDCK-C7 cells [2] = assay: Transepithelial resistance of MDCK-C7 monolayers (indication of cellular viability); type: cell-based, canine; details: at concentrations >10 μM; SCC response not measurable
Method: Nucleopore filters (4.7 cm^2) containing confluent MDCK-C7 cells (10-16 days) were removed from the Transwell chambers and clamped between the halves of an Ussing chamber (World Precision Instruments, Sarasota, Fla.). Each half of the chamber contained a tapered fluid compartment with openings for voltage electrodes (close to the epithelial membrane) and current electrodes (at the opposite end of the chamber). The fluid chamber was water jacketed to maintain constant temperature (37° C.). The cells were bathed in serum-free MEM. The media were circulated in the chambers by means of a 5%CO2/O2 gas lift. The electrodes were connected to a voltage-clamp amplifier (Current Voltage Clamp; World Precision Instruments) for measurement of net ion flux as monitored under short-circuit conditions (SCC; short circuit current) [Ussing, 1951]. Transepithelial resistance was calculated by applying a 2-mV pulse across the epithelium and measuring the resultant deflection in SCC. Data from cultures were used only if they maintained a resistance >1000 W cm^2. Transepithelial resistance (an indication of cellular viability) was monitored throughout the entire duration of each electrophysiological experiment by pulsing the tissues with a 2000 μV pulse every 200 seconds. Resistance values were calculated from the resulting current deflections using Ohm's law.

N=C(N)NC(=O)c1nc(Cl)c(N)nc1N [amiloride, amiloride hydrochloride, reference compound]
later sustained SCC (ion transport) response to ADH (MDCK-C7 cells [1]; amiloride 30 μM, apical media, hydrochloride): only blocks the later sustained SCC response; also recorded: decrease

[arg]-vasopressin (CYFQNCPRG-NH2; disulfide 1-6; UniProt P01185 20-28, looked up) [ADH, antidiuretic hormone used to stimulate ion transport, reference compound]
short circuit current response on stimulation (MDCK-C7 cells [1]; 100 mU/ml, serosal bathing media, multiphasic response): rapid increase in short circuit current

O=C(O)c1cc([N+](=O)[O-])ccc1NCCCc1ccccc1 [NPPB, reference compound]
rapid transient ion transport response to ADH (MDCK-C7 cells [1]; 500 μM, added to apical bathing medium, 30 minutes before ADH): significantly diminish

Cc1oc(-c2ccccc2)nc1CCOc1ccc(C[C@H](Nc2ccccc2C(=O)c2ccccc2)C(=O)O)cc1 [GI262570X, N-(2-benzoylphenyl)-O-[2-(5-methyl-2-phenyl-4-oxazolyl)ethyl]-L -tyrosine]
effects on the other phases of the SCC response to ADH (MDCK-C7 cells [1]; 100 nM or 1 μM, 18 hrs pre-incubation): no significant effects
initial rapid transient SCC response to ADH (MDCK-C7 cells [1]; 100 nM, n=4, p<0.05 vs controls): significantly attenuated
initial rapid transient SCC response to ADH (MDCK-C7 cells [1]; 1 μM, n=4, p<0.01 vs controls): significantly attenuated
effect on baseline SCC (MDCK-C7 cells [1]; -10 to 0 minutes, before ADH, 18 hrs pre-incubation): no compound-related effect
CFTR-mediated anion secretion in response to ADH stimulation (MDCK-C7 cells [1]; MDCK-C7 cells, summary statement): decreased
initial rapid transient response to ADH (MDCK-C7 cells [1]; over the concentration range of 1 nM - 1 μM): inhibited
cellular resistance of the monolayers (MDCK-C7 cells [2]): < 500 ohm cm^2
